Tests used:
[1] = Solubility in water; type: physicochemical
Text: In the prior art, these problems are not properly addressed. […] In DE 2016467, DE 2115660, U.S. Pat. No. 3,929,790, U.S. Pat. No. 3,937,707, WO 2008/089283, and in Alonso et al, Chem. Comm. 2004, 41, 412-413, methods to alkylate iodinin or myxin via their alkali salts is described. However, the functional groups introduced were alkyl groups, rendering the derivatives less water soluble than the parent compounds. No discussion of improvement in water solubility was described.

[2] = Solubility in biocompatible and organic solvents; type: physicochemical
Text: However, production of nano-carriers by emulsion-evaporation merit that the compound to be encapsulated must be dissolved in an organic solvent that is immiscible with water. The present invention enables the production of iodinin-encapsulated nanocarriers—iodinin and a biodegradable polymer can be dissolved in chloroform and mixed with water to make a nano-suspension, and organic solvent evaporated to co-precipitate the polymer with iodinin. To improve the nanonization of iodinin, a polymer can be precipitated to produce nanoparticles. The advantage of incorporating iodinin itself into a biodegradable polymer is that the drug load in the formulation may be higher. The particles may be coated with monoclonal antibodies, e.g. CD11 or CD33 against AML.

[3] = test system: leukaemia cell lines and AML-patient blasts; settings: cited from earlier work
[4] = test system: peripheral blood leukocytes (PBL); settings: at comparable anti-AML activity; cited from earlier work
[5] = test system: rat cardiomyoblasts; settings: at comparable anti-AML activity; cited from earlier work
[6] = test system: blood platelets; settings: at comparable anti-AML activity; cited from earlier work
[7] = test system: intestinal mucosa; settings: mouse, direct infusion of supra-saturated solution into the gut through a tube; cited from earlier work
[8] = test system: mouse sarcoma model; settings: in vivo; cited from earlier work
[9] = test system: certain other bacteria; settings: cited from earlier work

Structure (SMILES) | solubility in water [1] | solubility in biocompatible solvents ([2]; biocompatible solvents) | solubility in organic solvents ([2]; organic solvents such as toluene and chloroform) | potency against leukaemia cell lines and AML-patient blasts [3] | effect on AML cells ([3]; iodinin extracted from marine actinomycetes bacteria) | toxicity towards peripheral blood leukocytes (PBL) versus DNR [4] | toxicity towards rat cardiomyoblasts versus DNR [5] | toxicity towards blood platelets versus DNR [6] | intestinal symptoms / histological alteration of the intestinal mucosa [7] | activity against a mouse sarcoma model [8] | inhibition of growth of other bacteria [9]
[O-][n+]1c2cccc(O)c2[n+]([O-])c2cccc(O)c21 [iodinin, 1,6-dihydroxyphenazine-5,10-dioxide] | practically insoluble | poorly soluble | soluble | particularly potent | pronounced effect | less toxic than DNR | less toxic than DNR | less toxic than DNR | failed to cause any intestinal symptoms or histologically detectable alteration of the intestinal mucosa | low activity | inhibit the growth
COc1cccc2c1[n+]([O-])c1cccc(O)c1[n+]2[O-] [myxin] | practically insoluble | – | – | – | – | – | – | – | – | low activity | –

Reference: patent publication US9745273B2, “Phenazine derivatives as anti-neoplastic agents and anti-infective agents” (Universitetet I Oslo, priority 2013, dated 2017)
